Reference: paper PMC8376931, “Structure activity relationships and the binding mode of quinolinone-pyrimidine hybrids as reversal agents of multidrug resistance mediated by P-gp” (Scientific Reports, 2021)
Where two headings read alike, the source gives them in different places.

Legend:
SphK2 = settings: previously found, cited from earlier work
K562 cells [1] = assay: MTT cytotoxicity assay in K562; format: cell-based; settings: 48 h
Method: (§1) Then 0.5 mg/mL MTT in PBS was added. After additional incubation for 4 h, the formazan crystals obtained were dissolved in DMSO and the absorbance at 595 nm was read on an iMark micro-plate reader (Bio-Rad, USA). IC50 values for cytotoxicity were then calculated as reported[50] using nonlinear regression by GraphPad Prism 7 (Graphpad Software, Inc., San Diego, CA, USA, www.graphpad.com).
(§2) The cells were incubated at 37 °C at 5% CO2 for 48 h and the same protocol described above was followed. IC50 values of Dox were then obtained.

P-gp [2] = biological target: T1, P-gp (Homo sapiens, UniProt P08183); settings: 1 h
Method: (§3) The intracellular accumulation of the fluorescent probes, Dox and Rho123, was determined by monitoring its fluorescence intensity using flow cytometry (96-well plate format), as previously reported. The inhibition on the outward transport of these P-gp substrates results in an increased […] fluorescence intensity (MFI). […] Those compounds showing inhibition on P-gp at the maximum tested concentration were further evaluated at serial dilutions to determinate their MECs. […] The plates were then incubated in a 5% CO2 incubator for 1 h at 37 °C. Afterwards, 5 μM Dox was added to each well. The other fluorescent specific substrate of P-gp, Rho123, however, was added at 500 ng/mL to additionally measure the ability of the most promising compounds to block its efflux. Subsequently, cells from both assays were washed twice with cold PBS, and 15,000 events from each sample were analyzed to determine the cell-associated fluorescence. Dead cells were eliminated by means of forward- and side-scatter parameters. […] The blocking of the P-gp transport function was evaluated by the parameter FIR, calculated as the ratio of the MFI of Dox or Rho123 with the addition of the likely inhibitor to the MFI of Dox or Rho123 alone.

SphK1 = settings: previously found, cited from earlier work
P-gp [3] = biological target: T1, P-gp; settings: human, 1 h; for FIR Rho123: 0.62 µM; for FIR Rho123 (fold more Rho123 than untreated cells): 20 µM
Method: The intracellular accumulation of the fluorescent probes, Dox and Rho123, was determined by monitoring its fluorescence intensity using flow cytometry (96-well plate format), as previously reported. The inhibition on the outward transport of these P-gp substrates results in an increased […] fluorescence intensity (MFI). […] The plates were then incubated in a 5% CO2 incubator for 1 h at 37 °C. Afterwards, 5 μM Dox was added to each well. The other fluorescent specific substrate of P-gp, Rho123, however, was added at 500 ng/mL to additionally measure the ability of the most promising compounds to block its efflux. Subsequently, cells from both assays were washed twice with cold PBS, and 15,000 events from each sample were analyzed to determine the cell-associated fluorescence. Dead cells were eliminated by means of forward- and side-scatter parameters. […] The blocking of the P-gp transport function was evaluated by the parameter FIR, calculated as the ratio of the MFI of Dox or Rho123 with the addition of the likely inhibitor to the MFI of Dox or Rho123 alone.

PBMC = assay: Cytotoxicity on peripheral blood mononuclear cells (MTT); format: cell-based; settings: Homo sapiens, 48 h, PHA 10 μg/mL, read-out: inhibition on proliferation of PBMC
Method: (§4) PBMC were isolated from heparinized blood of healthy volunteers by density centrifugation using Ficoll-Hypaque separation. Ethical approval was provided by the Catholic University of Córdoba Research Ethics Board and informed consents were obtained from all donors. Briefly, 1 × 10^5 PBMC/well were incubated with the tested compounds at concentrations ranging from 2.5 to 20 µM in the presence of 10 μg/mL PHA, or with 1% DMSO as control. After 48 h incubation, MTT was added and the same protocol described above was followed to calculate the IC50 values. An erythrocyte hemolysis assay was carried out following previous procedures[8] with the compounds assayed at 2.5 to 20 µM.

Lucena 1 cells [4] = assay: Doxorubicin resistance reversal assay; format: cell-based; settings: for lowest co-administered concentration significantly increasing doxorubicin toxicity: p < 0.05
Method: as §2

K562 cells [5] = assay: Rhodamine 123 intracellular accumulation assay in K562; format: cell-based; settings: 20 μM
Method: as §3

erythrocytes = assay: Erythrocyte hemolysis assay; format: cell-based; settings: assayed at 2.5 to 20 µM
Method: as §4

K562 cells [6] = assay: Doxorubicin intracellular accumulation assay (flow cytometry) in K562; format: cell-based; design: key: MFI with inhibitor / MFI of Dox alone; settings: 5 μM Dox
Method: as §3

Lucena 1 cells [7] = assay: MTT cytotoxicity assay in Lucena 1; format: cell-based; settings: 48 h
Method: as §1, §2

[8] = MTT cytotoxicity assay in K562; format: cell-based; settings: human, K562 cells, read-out: IC50 (cytotoxicity) against K562
Method: as §1, §2

[9] = MTT cytotoxicity assay in Lucena 1; format: cell-based; settings: human, Lucena 1 cells, read-out: IC50 (cytotoxicity) against Lucena 1
Method: as §1, §2

[10] = compound 1.25 µM, FR = IC50 Dox/IC50 Dox with compound, 48 h

T1 sequence (P08183 whole entry): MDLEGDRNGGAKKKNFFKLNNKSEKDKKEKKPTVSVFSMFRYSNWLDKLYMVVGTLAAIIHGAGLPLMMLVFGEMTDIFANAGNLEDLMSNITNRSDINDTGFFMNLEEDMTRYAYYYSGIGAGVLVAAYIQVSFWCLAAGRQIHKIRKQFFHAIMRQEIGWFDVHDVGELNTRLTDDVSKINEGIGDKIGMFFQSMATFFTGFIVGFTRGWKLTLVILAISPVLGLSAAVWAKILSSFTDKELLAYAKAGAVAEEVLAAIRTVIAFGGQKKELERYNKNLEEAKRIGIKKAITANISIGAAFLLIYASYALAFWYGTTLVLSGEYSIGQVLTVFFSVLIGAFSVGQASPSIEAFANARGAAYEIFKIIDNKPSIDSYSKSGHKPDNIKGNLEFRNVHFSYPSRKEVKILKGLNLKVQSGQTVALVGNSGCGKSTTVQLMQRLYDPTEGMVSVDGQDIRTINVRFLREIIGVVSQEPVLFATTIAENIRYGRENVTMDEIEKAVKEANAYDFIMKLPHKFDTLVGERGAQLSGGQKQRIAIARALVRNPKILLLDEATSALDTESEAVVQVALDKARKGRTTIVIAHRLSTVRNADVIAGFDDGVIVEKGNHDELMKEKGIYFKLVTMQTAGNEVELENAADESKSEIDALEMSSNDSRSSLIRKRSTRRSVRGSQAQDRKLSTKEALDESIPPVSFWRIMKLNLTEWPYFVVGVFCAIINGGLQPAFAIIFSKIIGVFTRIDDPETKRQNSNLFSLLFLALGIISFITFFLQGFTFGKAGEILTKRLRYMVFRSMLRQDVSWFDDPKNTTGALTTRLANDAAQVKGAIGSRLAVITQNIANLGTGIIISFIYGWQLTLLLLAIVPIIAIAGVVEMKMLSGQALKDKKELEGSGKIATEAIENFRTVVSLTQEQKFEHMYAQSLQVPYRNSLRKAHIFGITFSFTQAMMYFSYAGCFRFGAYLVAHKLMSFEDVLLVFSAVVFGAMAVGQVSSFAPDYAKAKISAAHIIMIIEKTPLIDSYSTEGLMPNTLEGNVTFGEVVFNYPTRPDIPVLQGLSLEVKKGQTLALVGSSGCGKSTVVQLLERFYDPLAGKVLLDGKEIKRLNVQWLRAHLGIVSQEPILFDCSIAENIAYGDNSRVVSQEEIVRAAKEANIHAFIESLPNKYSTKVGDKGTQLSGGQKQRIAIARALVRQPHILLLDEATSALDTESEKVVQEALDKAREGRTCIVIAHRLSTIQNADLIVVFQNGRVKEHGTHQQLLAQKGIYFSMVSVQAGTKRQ

Row | SMILES | minimum effective concentration (MEC), Dox accumulation (P-gp [2]) [µM] | FIR Lucena 1 (P-gp [2]; 0.16 µM) | FIR Lucena 1 (P-gp [2]; 0.31 µM) | FIR Lucena 1 (P-gp [2]; 0.62 µM) | FIR Lucena 1 (P-gp [2]; 1.25 µM) | FIR Lucena 1 (P-gp [2]; 2.5 µM) | FIR Lucena 1 (P-gp [2]; 5 µM) | FIR Lucena 1 (P-gp [2]; 10 µM) | FIR Lucena 1 (P-gp [2]; 20 µM) | minimum effective concentration (MEC), Rho123 accumulation (P-gp [3]) [µM] | FIR Rho123 (P-gp [3]) | FIR Rho123 (fold more Rho123 than untreated cells) (P-gp [3]) | IC50 (cytotoxicity) against K562 (K562 cells [1]) | inhibition at 20 µM (PBMC) [%] | fold reversal (FR) of Dox resistance (Lucena 1 cells [4]; [10]) | lowest co-administered concentration significantly increasing doxorubicin toxicity (Lucena 1 cells [4]) [µM] | Rho123 accumulation in K562 (result in words) (K562 cells [5]) | concentrations at which the erythrocyte membrane was not altered (erythrocytes) | FIR K562 (K562 cells [6]; compound 20 µM) | IC50 (cytotoxicity) against Lucena 1 (Lucena 1 cells [7]) | further results
1 | COc1ccc2[nH]c(=O)c(CN3CCN(c4nccc(-c5ccc6ccccc6c5)n4)CC3)cc2c1 [Compound 7b] | 0.31 | 1.04 ± 0.02 | 1.10 ± 0.01 | 1.21 ± 0.01 | 1.18 ± 0.03 | 1.26 ± 0.04 | 1.26 ± 0.04 | 1.25 ± 0.04 | 1.43 ± 0.10 | 0.62 | 1.37 ± 0.06 | 3.05 ± 0.16 | non-toxic | 12 | 6.90 ± 2.84 | 0.08 | no increase | < 20 µM | 0.88 ± 0.02 | non-toxic | IC50 (SphK2; read-out: IC50 against SphK2): > 650 µM; IC50 (SphK1; read-out: IC50 against SphK1): > 650 µM; fold reversal (FR) of Dox resistance (Lucena 1 cells [4]; compound 80 nM): 1.51 ± 0.23
2 | COc1cc2cc(CNc3ccc(Nc4nccc(-c5ccc6ccccc6c5)n4)cc3)c(=O)[nH]c2cc1OC [Compound 5c] | 0.31 | 0.99 ± 0.07 | 1.12 ± 0.02 | 1.29 ± 0.08 | 1.22 ± 0.03 | 1.26 ± 0.01 | 1.23 ± 0.05 | 1.24 ± 0.10 | 1.42 ± 0.09 | 0.62 | 1.36 ± 0.04 | 2.72 ± 0.10 | non-toxic | 21 | 5.16 ± 0.60 | 0.04 | no increase | lower than 10 µM | 0.95 ± 0.02 | non-toxic | fold reversal (FR) of Dox resistance (Lucena 1 cells [4]; compound 40 nM): 1.30 ± 0.05
3 | NCCN1CCN(c2nccc(-c3ccc4ccccc4c3)n2)CC1 [Compound 10a] | 1.25 |  |  | 1.04 ± 0.03 | 1.13 ± 0.03 | 1.21 ± 0.02 | 1.30 ± 0.08 | 1.63 ± 0.17 | 2.36 ± 0.25 |  |  |  |  |  |  |  |  |  | 1.26 ± 0.06 |  | IC50 at 48 h [8]: 17.7 ± 0.15 µM; FIR K562 (K562 cells [6]; compound 5 µM): 0.98 ± 0.01; FIR K562 (K562 cells [6]; compound 10 µM): 1.13 ± 0.02; IC50 at 48 h [9]: 17.1 ± 0.95 µM

More lines, main results first:

Row | minimum effective concentration (MEC), Dox accumulation (P-gp [2]) [µM] | FIR Lucena 1 (P-gp [2]; 0.16 µM) | FIR Lucena 1 (P-gp [2]; 0.31 µM) | FIR Lucena 1 (P-gp [2]; 0.62 µM) | FIR Lucena 1 (P-gp [2]; 1.25 µM) | FIR Lucena 1 (P-gp [2]; 2.5 µM) | FIR Lucena 1 (P-gp [2]; 5 µM) | FIR Lucena 1 (P-gp [2]; 10 µM) | FIR Lucena 1 (P-gp [2]; 20 µM) | minimum effective concentration (MEC), Rho123 accumulation (P-gp [3]) [µM] | FIR Rho123 (P-gp [3]) | FIR Rho123 (fold more Rho123 than untreated cells) (P-gp [3]) | SMILES | IC50 (cytotoxicity) against K562 (K562 cells [1]) | inhibition at 20 µM (PBMC) [%] | fold reversal (FR) of Dox resistance (Lucena 1 cells [4]; [10]) | lowest co-administered concentration significantly increasing doxorubicin toxicity (Lucena 1 cells [4]) [µM] | Rho123 accumulation in K562 (result in words) (K562 cells [5]) | concentrations at which the erythrocyte membrane was not altered (erythrocytes) | FIR K562 (K562 cells [6]; compound 20 µM) | IC50 (cytotoxicity) against Lucena 1 (Lucena 1 cells [7]) | further results
4 | 0.62 |  | 1.00 ± 0.01 | 1.11 ± 0.03 | 1.19 ± 0.07 | 1.32 ± 0.08 | 1.32 ± 0.09 | 1.49 ± 0.20 | 1.68 ± 0.12 |  |  |  | COc1cc2cc(CN3CCN(c4nccc(-c5ccc(Cl)cc5)n4)CC3)c(=O)[nH]c2cc1OC [Compound 6c] |  |  |  |  |  |  | 0.79 ± 0.007 |  | IC50 against SphK2 (SphK2): no activity; IC50 against SphK1 (SphK1): no activity
5 | 0.62 |  | 1.08 ± 0.05 | 1.22 ± 0.07 | 1.24 ± 0.05 | 1.23 ± 0.02 | 1.27 ± 0.04 | 1.29 ± 0.11 | 1.45 ± 0.10 |  |  |  | COc1cc2cc(CN3CCN(c4nccc(-c5ccc6ccccc6c5)n4)CC3)c(=O)[nH]c2cc1OC [Compound 7c] |  |  |  |  |  |  | 1.04 ± 0.03 |  | IC50 at 48 h [8]: 6.7 ± 0.2 µM; IC50 at 48 h [9]: 10.2 ± 0.23 µM
